Data taken from patent US5486514A, “Carbamate derivatives” (Glaxo SpA, priority 1992, dated 1996).

Tests used:
[1] = target: CCK-A receptor; assay: CCK receptor binding, CCK-A receptor (Pancreas Assay)
Protocol: (§1) The greater affinity of the compounds of the invention for the CCK-B receptor over the CCK-A receptor has also been established using the CCK receptor binding assays described by G Dal Fornos et al., J. Pharmcol. Exp & Ther. 261, 1056-1063, 1992.
(§2) The binding affinity of the compounds of the invention for the CCK-A receptor (Pancreas Assay) and CCK-B receptor (guinea pig cortex assay) was determined using the procedure of G Dal Forno et al J. Pharmacol. Exp & Ther. 261--1056-1063. The pKi values determined with representative compounds of invention were as follows: […]

[2] = target: T1, CCK-B receptor (Cavia porcellus, UniProt H0VZC5); assay: CCK receptor binding, CCK-B receptor (guinea pig cortex assay); details: read-out: pKi CCK-B (converted)
T1 construct: CCK-B receptor (guinea pig cortex assay); from tissue; host or cells: guinea pig cortex
Protocol: as §1, §2

T1 sequence (H0VZC5 entry or part of it): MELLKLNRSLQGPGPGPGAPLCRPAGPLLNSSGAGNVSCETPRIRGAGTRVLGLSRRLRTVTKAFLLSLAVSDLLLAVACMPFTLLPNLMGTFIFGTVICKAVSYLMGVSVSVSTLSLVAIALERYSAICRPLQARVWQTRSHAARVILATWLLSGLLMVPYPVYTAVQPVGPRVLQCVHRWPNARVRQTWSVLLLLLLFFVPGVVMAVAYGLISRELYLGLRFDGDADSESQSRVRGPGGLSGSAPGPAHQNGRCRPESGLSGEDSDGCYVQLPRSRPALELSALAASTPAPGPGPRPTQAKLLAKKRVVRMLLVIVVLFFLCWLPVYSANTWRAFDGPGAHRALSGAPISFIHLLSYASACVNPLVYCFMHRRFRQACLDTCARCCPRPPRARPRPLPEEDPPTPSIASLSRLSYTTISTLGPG

Compound | pKi CCK-A [1] | Ki [2]
CC(C)CCN1C(=O)C(NC(=O)Oc2cccc(N(C)C)c2)C(=O)N(c2ccccc2)c2ccc(Cl)cc21 (racemic) [Example 24, 8-Chloro-3-[3-(N,N-dimethylamino)phenyloxycarbonylamino]-2,4-dioxo-1-(3-methylbut-1-yl)-5-phenyl-2,3,4,5-tetrahydro-1H-1,5-benzodiazepine] | 5.89 | 3.39 nM
CC(C)CCN1C(=O)C(NC(=O)Oc2cccc(N(C)C)c2)C(=O)N(c2ccccc2)c2ccccc21 (stereo not drawn) [Example 3] | 6.24 | 3.16 nM
COc1cccc(OC(=O)NC2C(=O)N(CCC(C)C)c3cc(Cl)c(Cl)cc3N(c3ccccc3)C2=O)c1 (racemic) [Example 25, 7,8-Dichloro-2,4-dioxo-3-(3-methoxyphenyloxycarbonyl)amino-1-(3-methyl-1-butyl)-5-phenyl-2,3,4,5-tetrahydro-1H-1,5-benzodiazepine] | 5.37 | 6.31 nM
CC(C)C(=O)CN1C(=O)C(NC(=O)Oc2cccc(N(C)C)c2)C(=O)N(c2ccccc2)c2ccccc21 (stereo not drawn) [Example 4, 3-[3-(N,N-dimethylamino)phenyloxycarbonylamino-2,4-dioxo-1-(3-methyl-2-oxo)but-1-yl)-5-phenyl-2,3,4,5-tetrahydro-1H-1,5-benzodiazepine] | 6.25 | 3.09 nM
O=C(NC1C(=O)N(CCC2CCCC2)c2ccccc2N(c2ccccc2F)C1=O)Oc1ccccc1 (stereo not drawn) [Example 13] | 6.25 | 4.57 nM
CC(C)CCN1C(=O)C(NC(=O)Oc2cccc(N(C)C)c2)C(=O)N(c2ccccc2)c2cc(Cl)c(Cl)cc21 (racemic) [Example 12, 7,8-Dichloro-3[3-(N,N-dimethylamino)phenyloxycarbonylamino]-2,4-dioxo-1-(3-methylbut-1-yl)-5-phenyl-2,3,4,5-tetrahydro-1H-1,5-benzodiazepine] | 5.49 | 7.41 nM
COc1cccc(OC(=O)NC2C(=O)N(CCC(C)C)c3cc(Cl)ccc3N(c3ccccc3)C2=O)c1 (racemic) [Example 38, 8-Chloro-2,4-dioxo-3-(3-methoxyphenyloxycarbonyl)amino-1-(3-methyl-1-butyl)-5-phenyl-2,3,4,5-tetrahydro-1H-1,5-benzodiazepine] | 5.35 | 20 nM
CC(C)(C)CCN1C(=O)C(NC(=O)Oc2ccccc2)C(=O)N(c2ccccc2F)c2ccccc21 (stereo not drawn) [Example 7] | 6.43 | 3.89 nM
CC(C)CCN1C(=O)C(NC(=O)Oc2ccccc2)C(=O)N(c2ccccc2)c2ccccc21 (racemic) [Example 1, 2,4-Dioxo-1-(3-methylbut-1-yl)-5-phenyl-3-(phenyloxycarbonylamino)-2,3,4,5-tetrahydro-1H-1,5-benzodiazepine] | 5.29 | 21.4 nM
CN(C)c1cccc(OC(=O)NC2C(=O)N(CC34CC5CC(CC(C5)C3)C4)c3ccccc3N(c3ccccc3)C2=O)c1 (stereo not drawn) [Example 20] | 5.48 | 12.3 nM
CC(C)CCN1C(=O)C(NC(=O)Oc2cccc(N(C)C)c2)C(=O)N(c2ccccc2F)c2ccccc21 (racemic) [Example 8, 3-[3-(N,N-dimethylamino)phenyloxycarbonylamino]-2,4-dioxo-5-(2-fluorophenyl)-1-(3-methylbut-1-yl)-2,3,4,5-tetrahydro-1H-1,5-benzodiazepine] | 6.38 | 1.58 nM
CN(C)c1cccc(OC(=O)NC2C(=O)N(CCC(C)(C)C)c3ccccc3N(c3ccccc3F)C2=O)c1 (racemic) [Example 9, 3-[3-(N,N-dimethylamino)phenyloxycarbonylamino]-1-(3,3-dimethylbut-1-yl)-2,4-dioxo-5-(2-fluorophenyl)-2,3,4,5-tetrahydro-1H-1,5-benzodiazepine] | 6.75 | 1.02 nM
